According to the supplement of paper PMC8882468:

Tested on: HCI-015 (organoid from a triple-negative breast cancer xenograft)
Experiment: CTG-3D luminescence at 96 h relative to day-0 seeding control (ratio to day 0); higher = more growth / less cytotoxicity; PDxO 3D drug screen (set 2), 96 h, CTG-3D normalised to day-0 seeding control.
Conditions: 0.005 µM; days in culture: 369

With COc1cccc2c1C(=O)c1c(O)c3c(c(O)c1C2=O)C[C@@](O)(C(=O)CO)C[C@@H]3O[C@H]1C[C@H](N)[C@@H](O)[C@H](C)O1 [epirubicin] as the compound, how does the “CTG-3D luminescence at 96 h” value read?
The value was 2.14.

For CC(=O)c1c(C)c2cnc(Nc3ccc(N4CCNCC4)cn3)nc2n(C2CCCC2)c1=O [palbociclib], which “CTG-3D luminescence at 96 h” value is on record?
The value was 2.45.

For O=C(c1cc(Cc2n[nH]c(=O)c3ccccc23)ccc1F)N1CCN(C(=O)C2CC2)CC1 [olaparib], which “CTG-3D luminescence at 96 h” value is on record?
Its value is 2.36.

Same assay, conditions: 0.1 µM; days in culture: 333

Which “CTG-3D luminescence at 96 h” value does the source give for COc1cccc2c1C(=O)c1c(O)c3c(c(O)c1C2=O)C[C@@](O)(C(=O)CO)C[C@@H]3O[C@H]1C[C@H](N)[C@@H](O)[C@H](C)O1 [epirubicin] here?
The value was 0.405.

Which “CTG-3D luminescence at 96 h” value does the source give for CC(=O)c1c(C)c2cnc(Nc3ccc(N4CCNCC4)cn3)nc2n(C2CCCC2)c1=O [palbociclib] here?
Its value is 0.877.

With O=C(c1cc(Cc2n[nH]c(=O)c3ccccc23)ccc1F)N1CCN(C(=O)C2CC2)CC1 [olaparib] as the compound, how does the “CTG-3D luminescence at 96 h” value read?
Its value is 1.95.

Same assay, conditions: 0.1 µM; days in culture: 355

Which “CTG-3D luminescence at 96 h” value does the source give for COc1cccc2c1C(=O)c1c(O)c3c(c(O)c1C2=O)C[C@@](O)(C(=O)CO)C[C@@H]3O[C@H]1C[C@H](N)[C@@H](O)[C@H](C)O1 [epirubicin] here?
Its value is 0.761.

Which “CTG-3D luminescence at 96 h” value does the source give for CC(=O)c1c(C)c2cnc(Nc3ccc(N4CCNCC4)cn3)nc2n(C2CCCC2)c1=O [palbociclib] here?
The value was 3.47.

Which “CTG-3D luminescence at 96 h” value does the source give for O=C(c1cc(Cc2n[nH]c(=O)c3ccccc23)ccc1F)N1CCN(C(=O)C2CC2)CC1 [olaparib] here?
The value was 1.6.

Same assay, conditions: 0.1 µM; days in culture: 369

How did the “CTG-3D luminescence at 96 h” value turn out when COc1cccc2c1C(=O)c1c(O)c3c(c(O)c1C2=O)C[C@@](O)(C(=O)CO)C[C@@H]3O[C@H]1C[C@H](N)[C@@H](O)[C@H](C)O1 [epirubicin] was run?
The value was 0.514.

With CC(=O)c1c(C)c2cnc(Nc3ccc(N4CCNCC4)cn3)nc2n(C2CCCC2)c1=O [palbociclib] as the compound, how does the “CTG-3D luminescence at 96 h” value read?
The value was 1.9.

For O=C(c1cc(Cc2n[nH]c(=O)c3ccccc23)ccc1F)N1CCN(C(=O)C2CC2)CC1 [olaparib], which “CTG-3D luminescence at 96 h” value is on record?
The value was 1.91.

Same assay, conditions: 1 µM; days in culture: 333

For COc1cccc2c1C(=O)c1c(O)c3c(c(O)c1C2=O)C[C@@](O)(C(=O)CO)C[C@@H]3O[C@H]1C[C@H](N)[C@@H](O)[C@H](C)O1 [epirubicin], which “CTG-3D luminescence at 96 h” value is on record?
Its value is 0.191.

With CC(=O)c1c(C)c2cnc(Nc3ccc(N4CCNCC4)cn3)nc2n(C2CCCC2)c1=O [palbociclib] as the compound, how does the “CTG-3D luminescence at 96 h” value read?
The value was 0.941.

How did the “CTG-3D luminescence at 96 h” value turn out when O=C(c1cc(Cc2n[nH]c(=O)c3ccccc23)ccc1F)N1CCN(C(=O)C2CC2)CC1 [olaparib] was run?
Its value is 0.972.

Same assay, conditions: 1 µM; days in culture: 355

For COc1cccc2c1C(=O)c1c(O)c3c(c(O)c1C2=O)C[C@@](O)(C(=O)CO)C[C@@H]3O[C@H]1C[C@H](N)[C@@H](O)[C@H](C)O1 [epirubicin], which “CTG-3D luminescence at 96 h” value is on record?
The value was 0.192.

Which “CTG-3D luminescence at 96 h” value does the source give for CC(=O)c1c(C)c2cnc(Nc3ccc(N4CCNCC4)cn3)nc2n(C2CCCC2)c1=O [palbociclib] here?
Its value is 0.976.

How did the “CTG-3D luminescence at 96 h” value turn out when O=C(c1cc(Cc2n[nH]c(=O)c3ccccc23)ccc1F)N1CCN(C(=O)C2CC2)CC1 [olaparib] was run?
The value was 0.993.

Same assay, conditions: 1 µM; days in culture: 369

With COc1cccc2c1C(=O)c1c(O)c3c(c(O)c1C2=O)C[C@@](O)(C(=O)CO)C[C@@H]3O[C@H]1C[C@H](N)[C@@H](O)[C@H](C)O1 [epirubicin] as the compound, how does the “CTG-3D luminescence at 96 h” value read?
The value was 0.143.

How did the “CTG-3D luminescence at 96 h” value turn out when CC(=O)c1c(C)c2cnc(Nc3ccc(N4CCNCC4)cn3)nc2n(C2CCCC2)c1=O [palbociclib] was run?
The value was 1.82.

With O=C(c1cc(Cc2n[nH]c(=O)c3ccccc23)ccc1F)N1CCN(C(=O)C2CC2)CC1 [olaparib] as the compound, how does the “CTG-3D luminescence at 96 h” value read?
The value was 1.9.

Same assay, conditions: 10 µM; days in culture: 333

For COc1cccc2c1C(=O)c1c(O)c3c(c(O)c1C2=O)C[C@@](O)(C(=O)CO)C[C@@H]3O[C@H]1C[C@H](N)[C@@H](O)[C@H](C)O1 [epirubicin], which “CTG-3D luminescence at 96 h” value is on record?
The value was 0.0651.

For CC(=O)c1c(C)c2cnc(Nc3ccc(N4CCNCC4)cn3)nc2n(C2CCCC2)c1=O [palbociclib], which “CTG-3D luminescence at 96 h” value is on record?
Its value is 0.44.

How did the “CTG-3D luminescence at 96 h” value turn out when O=C(c1cc(Cc2n[nH]c(=O)c3ccccc23)ccc1F)N1CCN(C(=O)C2CC2)CC1 [olaparib] was run?
The value was 0.511.

Same assay, conditions: 10 µM; days in culture: 355

With COc1cccc2c1C(=O)c1c(O)c3c(c(O)c1C2=O)C[C@@](O)(C(=O)CO)C[C@@H]3O[C@H]1C[C@H](N)[C@@H](O)[C@H](C)O1 [epirubicin] as the compound, how does the “CTG-3D luminescence at 96 h” value read?
Its value is 0.0805.

CC(=O)c1c(C)c2cnc(Nc3ccc(N4CCNCC4)cn3)nc2n(C2CCCC2)c1=O [palbociclib] was tested. Which “CTG-3D luminescence at 96 h” value did it give?
Its value is 1.99.

Which “CTG-3D luminescence at 96 h” value does the source give for O=C(c1cc(Cc2n[nH]c(=O)c3ccccc23)ccc1F)N1CCN(C(=O)C2CC2)CC1 [olaparib] here?
The value was 0.516.

Same assay, conditions: 10 µM; days in culture: 369

How did the “CTG-3D luminescence at 96 h” value turn out when COc1cccc2c1C(=O)c1c(O)c3c(c(O)c1C2=O)C[C@@](O)(C(=O)CO)C[C@@H]3O[C@H]1C[C@H](N)[C@@H](O)[C@H](C)O1 [epirubicin] was run?
Its value is 0.117.

For CC(=O)c1c(C)c2cnc(Nc3ccc(N4CCNCC4)cn3)nc2n(C2CCCC2)c1=O [palbociclib], which “CTG-3D luminescence at 96 h” value is on record?
Its value is 1.07.

O=C(c1cc(Cc2n[nH]c(=O)c3ccccc23)ccc1F)N1CCN(C(=O)C2CC2)CC1 [olaparib] was tested. Which “CTG-3D luminescence at 96 h” value did it give?
Its value is 1.05.

Same assay, conditions: 100 µM; days in culture: 333

For COc1cccc2c1C(=O)c1c(O)c3c(c(O)c1C2=O)C[C@@](O)(C(=O)CO)C[C@@H]3O[C@H]1C[C@H](N)[C@@H](O)[C@H](C)O1 [epirubicin], which “CTG-3D luminescence at 96 h” value is on record?
The value was 0.000859.

CC(=O)c1c(C)c2cnc(Nc3ccc(N4CCNCC4)cn3)nc2n(C2CCCC2)c1=O [palbociclib] was tested. Which “CTG-3D luminescence at 96 h” value did it give?
The value was 0.369.

For O=C(c1cc(Cc2n[nH]c(=O)c3ccccc23)ccc1F)N1CCN(C(=O)C2CC2)CC1 [olaparib], which “CTG-3D luminescence at 96 h” value is on record?
Its value is 0.241.

Same assay, conditions: 100 µM; days in culture: 355

How did the “CTG-3D luminescence at 96 h” value turn out when COc1cccc2c1C(=O)c1c(O)c3c(c(O)c1C2=O)C[C@@](O)(C(=O)CO)C[C@@H]3O[C@H]1C[C@H](N)[C@@H](O)[C@H](C)O1 [epirubicin] was run?
The value was 0.00144.

With CC(=O)c1c(C)c2cnc(Nc3ccc(N4CCNCC4)cn3)nc2n(C2CCCC2)c1=O [palbociclib] as the compound, how does the “CTG-3D luminescence at 96 h” value read?
The value was 0.775.

For O=C(c1cc(Cc2n[nH]c(=O)c3ccccc23)ccc1F)N1CCN(C(=O)C2CC2)CC1 [olaparib], which “CTG-3D luminescence at 96 h” value is on record?
The value was 0.951.

Same assay, conditions: 100 µM; days in culture: 369

For COc1cccc2c1C(=O)c1c(O)c3c(c(O)c1C2=O)C[C@@](O)(C(=O)CO)C[C@@H]3O[C@H]1C[C@H](N)[C@@H](O)[C@H](C)O1 [epirubicin], which “CTG-3D luminescence at 96 h” value is on record?
The value was 0.000973.

For CC(=O)c1c(C)c2cnc(Nc3ccc(N4CCNCC4)cn3)nc2n(C2CCCC2)c1=O [palbociclib], which “CTG-3D luminescence at 96 h” value is on record?
Its value is 0.742.

Which “CTG-3D luminescence at 96 h” value does the source give for O=C(c1cc(Cc2n[nH]c(=O)c3ccccc23)ccc1F)N1CCN(C(=O)C2CC2)CC1 [olaparib] here?
Its value is 1.24.

Same assay, conditions: 625 fM; days in culture: 333

With COc1cccc2c1C(=O)c1c(O)c3c(c(O)c1C2=O)C[C@@](O)(C(=O)CO)C[C@@H]3O[C@H]1C[C@H](N)[C@@H](O)[C@H](C)O1 [epirubicin] as the compound, how does the “CTG-3D luminescence at 96 h” value read?
The value was 1.94.

CC(=O)c1c(C)c2cnc(Nc3ccc(N4CCNCC4)cn3)nc2n(C2CCCC2)c1=O [palbociclib] was tested. Which “CTG-3D luminescence at 96 h” value did it give?
The value was 1.89.

How did the “CTG-3D luminescence at 96 h” value turn out when O=C(c1cc(Cc2n[nH]c(=O)c3ccccc23)ccc1F)N1CCN(C(=O)C2CC2)CC1 [olaparib] was run?
The value was 1.03.

Same assay, conditions: 625 fM; days in culture: 355

Which “CTG-3D luminescence at 96 h” value does the source give for COc1cccc2c1C(=O)c1c(O)c3c(c(O)c1C2=O)C[C@@](O)(C(=O)CO)C[C@@H]3O[C@H]1C[C@H](N)[C@@H](O)[C@H](C)O1 [epirubicin] here?
Its value is 1.85.

How did the “CTG-3D luminescence at 96 h” value turn out when CC(=O)c1c(C)c2cnc(Nc3ccc(N4CCNCC4)cn3)nc2n(C2CCCC2)c1=O [palbociclib] was run?
The value was 1.74.

How did the “CTG-3D luminescence at 96 h” value turn out when O=C(c1cc(Cc2n[nH]c(=O)c3ccccc23)ccc1F)N1CCN(C(=O)C2CC2)CC1 [olaparib] was run?
The value was 2.1.

Same assay, conditions: 625 fM; days in culture: 369

For COc1cccc2c1C(=O)c1c(O)c3c(c(O)c1C2=O)C[C@@](O)(C(=O)CO)C[C@@H]3O[C@H]1C[C@H](N)[C@@H](O)[C@H](C)O1 [epirubicin], which “CTG-3D luminescence at 96 h” value is on record?
Its value is 2.07.

How did the “CTG-3D luminescence at 96 h” value turn out when CC(=O)c1c(C)c2cnc(Nc3ccc(N4CCNCC4)cn3)nc2n(C2CCCC2)c1=O [palbociclib] was run?
Its value is 1.94.

Which “CTG-3D luminescence at 96 h” value does the source give for O=C(c1cc(Cc2n[nH]c(=O)c3ccccc23)ccc1F)N1CCN(C(=O)C2CC2)CC1 [olaparib] here?
Its value is 2.02.
